Laboratory results taken from patent US20080167347A1, “Ctgf Expression Inhibitor” (SHIONGI & CO., LTD., priority 2005, published 2008).
pIC50: −log10 of the molar value.

System: human CTGF promoter region containing TGF-β responsive element
Assay: Luciferase assay of CTGF promoter activity in Ms0-2-3 cells stimulated with TGF-β
Type: cell-based
Settings: Mesangial cell; Ms0-2-3 rat mesangial cells, TGF-β 2 ng/ml stimulation, luciferase activity after 24 hours; read-out: IC50 (inhibitory rate against CTGF promoter activity)
Experimental: Several kidneys of 6 to 8-week-old male Wistar rats were perfused with sterilized phosphate buffered saline (PBS) and excised. Glomeruli were isolated from the cortex by a sieving method (with 180, 125 or 63 μm mesh). Isolated glomeruli were cultured in RPMI1640 medium containing 20% bovine serum, 1% penicillin-streptomycin and 1% Hepes buffer at 37° C. under 5% carbon dioxide (CO2) atmosphere. After 3 weeks, the medium was changed to the new one. After 4 weeks, mesangial cells which proliferated and became confluent were diluted 2 to 5 times and subcultured. Subcultures were repeated over 20 times, and mesangial cells cultured in usual RPMI1640 medium containing 10% bovine serum, 1% penicillin-streptomycin and 1% Hepes buffer were cloned by a limiting dilution method to establish cell line Ms0-2. […]
Luciferase assay was performed with Ms0-2-3 cells which were cultured with serum-free medium for 48 hours. […] Substrate was added thereto and luciferase activity of each well was measured by luminometer. Enhancement of luciferase activity by TGF-β stimulation (without a compound) was determined as 100% and the inhibitory rate of activity by addition of the compound was calculated. The value obtained from the inhibitory curve was judged as the inhibitory rate against CTGF promoter activity and determined as IC50 value. […]

O=C(Nc1cccc(C(F)(F)F)c1)c1cc(-c2ccc(OC(F)(F)F)cc2)ccc1O [Compound 43]
pIC50: 6.99
